Reference: ChEMBL document CHEMBL1201862, “PubChem BioAssay data set” (2004)
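Following 48 hours of exposure in 96-well plates, responses at five concentrations were used to interpolate endpoints linearly. The concentration for 50% growth inhibition is given as GI50.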 Active and inactive are the calls of the source. Rule as the data show it: active = GI50 up to about 1.1 µM and inactive = higher.

Tests used:
Assay in all cases: growth of human tumour cells (NCI), 48 h
NCI-H226 = tested on: NCI-H226
HOP-62 = tested on: HOP-62
SF-268 = tested on: SF-268
BT-549 = tested on: BT-549
UACC-62 = tested on: UACC-62
M14 = tested on: M14
MDA-MB-435 = tested on: MDA-MB-435
MCF7 = tested on: MCF7
RXF 631 = tested on: RXF 631
OVCAR-4 = tested on: OVCAR-4
MOLT-4 = tested on: MOLT-4
UO-31 = tested on: UO-31
IGROV-1 = tested on: IGROV-1
SK-OV-3 = tested on: SK-OV-3
SNB-19 = tested on: SNB-19
DU-145 = tested on: DU-145
NCI-H460 = tested on: NCI-H460
DMS-114 = tested on: DMS-114
SF-295 = tested on: SF-295
LOX IMVI = tested on: LOX IMVI
DLD-1 = tested on: DLD-1
OVCAR-5 = tested on: OVCAR-5
SN12C = tested on: SN12C
COLO 205 = tested on: COLO 205
Hs-578T = tested on: Hs-578T
MDA-MB-231 = tested on: MDA-MB-231
KM12 = tested on: KM12
MDA-N = tested on: MDA-N
SF-539 = tested on: SF-539
NCI-H522 = tested on: NCI-H522
RPMI-8226 = tested on: RPMI-8226
UACC-257 = tested on: UACC-257
HL-60 = tested on: HL-60
PC-3 = tested on: PC-3
T47D = tested on: T47D
M19-MEL = tested on: M19-MEL
Malme-3M = tested on: Malme-3M
SW-620 = tested on: SW-620
LXFL 529 = tested on: LXFL 529
TK-10 = tested on: TK-10
786-0 = tested on: 786-0
A549 = tested on: A549
SNB-75 = tested on: SNB-75
A498 = tested on: A498
HCT-116 = tested on: HCT-116
SK-MEL-5 = tested on: SK-MEL-5
HT-29 = tested on: HT-29
NCI/ADR-RES = tested on: NCI/ADR-RES
OVCAR-3 = tested on: OVCAR-3
SR = tested on: SR
OVCAR-8 = tested on: OVCAR-8
U-251 = tested on: U-251
XF498 = tested on: XF498
K562 = tested on: K562
ACHN = tested on: ACHN
HOP-92 = tested on: HOP-92
HCC 2998 = tested on: HCC 2998
SK-MEL-28 = tested on: SK-MEL-28
KM-20L2 = tested on: KM-20L2
CAKI-1 = tested on: CAKI-1
HCT-15 = tested on: HCT-15
EKVX = tested on: EKVX
NCI-H23 = tested on: NCI-H23
SK-MEL-2 = tested on: SK-MEL-2

## O=c1oc2ccccc2c(O)c1C(C/C(CCN1CCCC1)=N/O)c1ccccc1 (centres undefined)
NCI-H226
  GI50: > 100 µM (inactive)
HOP-62
  GI50: > 100 µM (inactive)
SF-268
  GI50: > 100 µM (inactive)
BT-549
  GI50: 31.7 µM (inactive)
UACC-62
  GI50: > 100 µM (inactive)
M14
  GI50: > 100 µM (inactive)
MDA-MB-435
  GI50: > 100 µM (inactive)
MCF7
  GI50: > 100 µM (inactive)
RXF 631
  GI50: > 100 µM (inactive)
OVCAR-4
  GI50: > 100 µM (inactive)
MOLT-4
  GI50: > 48 µM (inactive)
UO-31
  GI50: > 100 µM (inactive)
IGROV-1
  GI50: > 100 µM (inactive)
SK-OV-3
  GI50: > 100 µM (inactive)
SNB-19
  GI50: > 100 µM (inactive)
DU-145
  GI50: > 100 µM (inactive)
NCI-H460
  GI50: > 100 µM (inactive)
DMS-114
  GI50: > 100 µM (inactive)
SF-295
  GI50: > 100 µM (inactive)
LOX IMVI
  GI50: > 100 µM (inactive)
DLD-1
  GI50: > 100 µM (inactive)
OVCAR-5
  GI50: > 100 µM (inactive)
SN12C
  GI50: > 100 µM (inactive)
COLO 205
  GI50: > 100 µM (inactive)
Hs-578T
  GI50: > 100 µM (inactive)
MDA-MB-231
  GI50: > 100 µM (inactive)
KM12
  GI50: > 100 µM (inactive)
MDA-N
  GI50: > 100 µM (inactive)
SF-539
  GI50: > 100 µM (inactive)
NCI-H522
  GI50: > 100 µM (inactive)
RPMI-8226
  GI50: > 94.8 µM (inactive)
UACC-257
  GI50: > 100 µM (inactive)
HL-60
  GI50: > 31.6 µM (inactive)
PC-3
  GI50: > 100 µM (inactive)
T47D
  GI50: 7.87 µM (inactive)
M19-MEL
  GI50: > 100 µM (inactive)
Malme-3M
  GI50: > 100 µM (inactive)
SW-620
  GI50: > 100 µM (inactive)
LXFL 529
  GI50: > 100 µM (inactive)
TK-10
  GI50: > 100 µM (inactive)
786-0
  GI50: > 100 µM (inactive)
A549
  GI50: > 100 µM (inactive)
SNB-75
  GI50: > 91.2 µM (inactive)
A498
  GI50: > 100 µM (inactive)
HCT-116
  GI50: > 100 µM (inactive)
SK-MEL-5
  GI50: > 100 µM (inactive)
HT-29
  GI50: > 100 µM (inactive)
NCI/ADR-RES
  GI50: > 100 µM (inactive)
OVCAR-3
  GI50: > 100 µM (inactive)
SR
  GI50: > 100 µM (inactive)
OVCAR-8
  GI50: > 100 µM (inactive)
U-251
  GI50: > 100 µM (inactive)
XF498
  GI50: > 100 µM (inactive)
K562
  GI50: > 31.6 µM (inactive)
ACHN
  GI50: > 100 µM (inactive)
HOP-92
  GI50: 56.4 µM (inactive)
HCC 2998
  GI50: > 100 µM (inactive)
SK-MEL-28
  GI50: > 100 µM (inactive)
KM-20L2
  GI50: > 100 µM (inactive)
CAKI-1
  GI50: > 100 µM (inactive)
HCT-15
  GI50: > 100 µM
EKVX
  GI50: > 100 µM (inactive)
NCI-H23
  GI50: > 100 µM (inactive)
SK-MEL-2
  GI50: > 100 µM (inactive)
